Experimental data reported in ChEMBL document CHEMBL4819133, “Exploiting the HSP60/10 chaperonin system as a chemotherapeutic target for colorectal cancer” (Bioorg Med Chem, 2021).

Legend:
E. coli GroEL/ES [1] = molecular target: T1, E. coli GroEL/ES (Escherichia coli, UniProt P0A6F5); assay: Inhibition of Escherichia coli GroEL/ES-mediated refolding of the denatured rhodanese; assay type: protein-complex assay
HT-29 = assay: Cytotoxicity against human HT-29 cells assessed as reduction in cell viability measured after 48 hrs by AlamarBlue assay; assay type: functional, cell-based; details: HT-29, 48 h
[2] = molecular target: T2, Thiosulfate sulfurtransferase (Homo sapiens, UniProt Q16762); assay: Inhibition of refolded Rhodanese (unknown origin)-mediated conversion of cyanide to thiocyanate treated with compound after refolding of the denatured enzyme
T2 sequence (Q16762 whole entry): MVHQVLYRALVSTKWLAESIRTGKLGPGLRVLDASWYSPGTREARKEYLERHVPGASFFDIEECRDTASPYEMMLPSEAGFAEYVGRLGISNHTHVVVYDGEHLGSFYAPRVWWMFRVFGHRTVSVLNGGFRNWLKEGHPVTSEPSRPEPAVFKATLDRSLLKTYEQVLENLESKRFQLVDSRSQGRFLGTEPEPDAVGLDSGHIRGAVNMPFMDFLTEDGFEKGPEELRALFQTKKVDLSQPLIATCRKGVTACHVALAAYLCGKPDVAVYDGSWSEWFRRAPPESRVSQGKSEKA

[3] = Cytotoxicity against human THLE-3 cells assessed as reduction in cell viability measured after 48 hrs by AlamarBlue assay; assay type: cell-based; details: for CC50 at 48 h: THLE-3 cells; for CC50: thle-3, 48 h
[4] = (§1) Cytotoxicity against human HEK293 cells assessed as reduction in cell viability measured after 48 hrs by AlamarBlue assay; assay type: cell-based; details: HEK293 cells
E. coli GroEL/ES [5] = molecular target: T1, E. coli GroEL/ES; assay: Inhibition of Escherichia coli GroEL/ES-mediated refolding of the denatured malate dehydrogenase; assay type: protein-complex assay
DLD-1 = assay: Cytotoxicity against human DLD-1 cells assessed as reduction in cell viability measured after 48 hrs by AlamarBlue assay; assay type: functional, cell-based; details: DLD-1, 48 h
[6] = Inhibition of refolded MDH (unknown origin)-mediated oxidation of NADPH in presence of mesoxalic acid treated with compound after refolding of the denatured enzyme; set-up: species or system Homo sapiens
HCT-116 = assay: Cytotoxicity against human HCT-116 cells assessed as reduction in cell viability measured after 48 hrs by AlamarBlue assay; assay type: functional, cell-based; details: HCT-116, 48 h
[7] = Cytotoxicity against human FHs74Int cells assessed as reduction in cell viability measured after 48 hrs by AlamarBlue assay; assay type: cell-based
HSP60/HSP10 = HSP60/HSP10 (Homo sapiens, UniProt P10809); assay: Inhibition of human mitochondrial HSP60/10-mediated refolding of the denatured malate dehydrogenase; assay type: mitochondria, Mitochondria
Chain of HSP60/HSP10 (P10809 whole entry): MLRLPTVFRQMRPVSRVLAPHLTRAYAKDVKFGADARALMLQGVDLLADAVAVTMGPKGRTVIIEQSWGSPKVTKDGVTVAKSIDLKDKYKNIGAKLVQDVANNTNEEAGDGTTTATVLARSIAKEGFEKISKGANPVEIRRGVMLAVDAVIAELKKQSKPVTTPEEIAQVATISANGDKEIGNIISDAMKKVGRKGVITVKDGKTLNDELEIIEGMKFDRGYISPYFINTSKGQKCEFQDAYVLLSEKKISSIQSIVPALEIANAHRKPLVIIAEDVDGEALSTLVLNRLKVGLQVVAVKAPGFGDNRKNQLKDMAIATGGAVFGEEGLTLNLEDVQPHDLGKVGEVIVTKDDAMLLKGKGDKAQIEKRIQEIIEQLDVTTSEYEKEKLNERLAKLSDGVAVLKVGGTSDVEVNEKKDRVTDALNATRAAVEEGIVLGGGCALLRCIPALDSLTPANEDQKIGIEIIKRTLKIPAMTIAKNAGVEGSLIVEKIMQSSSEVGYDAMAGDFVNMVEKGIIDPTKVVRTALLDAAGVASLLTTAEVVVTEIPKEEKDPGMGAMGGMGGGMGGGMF
Chain of HSP60/HSP10 (P61604 whole entry, further chain): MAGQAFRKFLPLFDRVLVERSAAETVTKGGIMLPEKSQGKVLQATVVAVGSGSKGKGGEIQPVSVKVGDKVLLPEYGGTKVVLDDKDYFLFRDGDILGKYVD

FHC = assay: Cytotoxicity against human FHC cells assessed as reduction in cell viability measured after 48 hrs by AlamarBlue assay; assay type: cell-based
HEK293 = assay: as §1; assay type: cell-based; details: hek293, 48 h

T1 sequence (P0A6F5 whole entry, looked up): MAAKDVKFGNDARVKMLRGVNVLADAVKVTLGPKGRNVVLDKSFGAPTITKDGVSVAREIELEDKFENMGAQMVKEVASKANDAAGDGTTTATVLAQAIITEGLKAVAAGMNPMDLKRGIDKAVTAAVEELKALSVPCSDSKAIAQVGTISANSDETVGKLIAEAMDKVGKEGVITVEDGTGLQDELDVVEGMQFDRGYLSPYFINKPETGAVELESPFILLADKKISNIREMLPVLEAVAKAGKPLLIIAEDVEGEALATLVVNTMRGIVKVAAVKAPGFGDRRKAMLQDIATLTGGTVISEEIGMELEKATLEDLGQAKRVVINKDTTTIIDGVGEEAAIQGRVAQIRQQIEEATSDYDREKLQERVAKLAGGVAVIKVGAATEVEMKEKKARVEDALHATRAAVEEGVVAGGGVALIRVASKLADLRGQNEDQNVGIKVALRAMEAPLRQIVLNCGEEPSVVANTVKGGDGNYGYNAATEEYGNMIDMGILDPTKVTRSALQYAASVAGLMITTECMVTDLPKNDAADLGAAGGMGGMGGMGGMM

SMILES | IC50 (E. coli GroEL/ES [1]) [µM] | EC50 (HT-29) [µM] | IC50 [2] [µM] | CC50 at 48 h [3] [µM] | CC50 at 48 h [4] [µM] | IC50 (E. coli GroEL/ES [5]) [µM] | EC50 (DLD-1) [µM] | IC50 [6] [µM] | EC50 (HCT-116) [µM] | CC50 [7] [µM] | IC50 (HSP60/HSP10) [µM] | CC50 (FHC) [µM] | CC50 [3] [µM] | CC50 (HEK293) [µM]
O=S(=O)(Nc1ccc(-c2nc3cc(NS(=O)(=O)c4cccc5ccccc45)ccc3o2)cc1)c1cccc2ccccc12 | 35 | 31 | > 100 | 49 | > 100 | 43 | 34 | > 62.5 | 20 | 52 |  |  |  | 
O=S(=O)(Nc1ccc(-c2nc3cc(NS(=O)(=O)c4ccc(F)cc4)ccc3o2)cc1)c1ccc(F)cc1 | 19 | 17 | > 100 | 22 | 31 |  | 18 | > 62.5 | 12 | 63 | 63 | 27 |  | 
O=S(=O)(Nc1ccc(-c2nc3cc(NS(=O)(=O)c4ccc(C(F)(F)F)cc4)ccc3o2)cc1)c1ccc(C(F)(F)F)cc1 | 34 | 13 | > 100 | 21 | 29 | 19 | 10 | > 62.5 | 15 | 69 | 57 | 57 |  | 
COc1c(Br)cccc1C(=O)Nc1ccc(Sc2nc3ccccc3s2)cc1 |  | 30 |  | > 100 | > 100 |  | 40 | > 62.5 | 31 |  |  |  |  | 
COc1ccccc1S(=O)(=O)Nc1ccc(-c2nc3cc(NS(=O)(=O)c4ccccc4OC)ccc3o2)cc1 | 33 | 16 | > 100 | 48 | 28 | 43 | 6.6 | > 62.5 | 9.2 | 81 | 87 | 74 |  | 
COc1ccc(S(=O)(=O)Nc2ccc3oc(-c4ccc(NS(=O)(=O)c5cc(Br)ccc5OC)cc4)nc3c2)cc1 | 22 | 14 | > 100 |  |  | 27 | 15 | > 62.5 | 12 | > 100 | 67 | > 100 | 16 | 18
O=S(=O)(Nc1ccc(-c2nc3cc(NS(=O)(=O)c4ccccc4Cl)ccc3o2)cc1)c1ccccc1Cl | 43 | 15 | > 100 | 25 | 46 | 40 | 17 | > 62.5 | 12 | 38 |  | 45 |  | 
COc1ccc(S(=O)(=O)Nc2ccc3oc(-c4ccc(NS(=O)(=O)c5cc(F)ccc5OC)cc4)nc3c2)cc1 | 30 | 15 | > 100 |  |  | 18 | 18 | > 62.5 | 15 | > 100 | > 100 | > 100 | 25 | 24
COc1ccc(S(=O)(=O)Nc2ccc(-c3nc4cc(NS(=O)(=O)c5ccc(OC)cc5)ccc4o3)cc2)cc1 | 56 | 40 | > 100 | 60 | 48 | 30 | 28 | > 62.5 | 12 | 40 |  | 57 |  | 
